Source: patent US20230345940A1, “INSECTICIDE” (Western Sydney University, priority 2020, published 2023)
Where two headings read alike, the source gives them in different places.

Assays:
Type in all cases: in vivo
[1] = test system: neonate Helicoverpa armigera; assay: Potter spray tower bioassay on leaf discs, Helicoverpa neonates; details: 1.0% w/v; for mortality at 1 % strength: Helicoverpa armigera, foliar
Source text: Helicoverpa armigera (Hubner) (Lepidoptera: Noctuidae), commonly known as the cotton bollworm or as heliothis, is a widespread species, with an extensive host range (see, e.g., https://www.cabi.org/isc/datasheet/26757). It typically feeds selectively on high protein plant parts, such as flowers, buds and fruits. Helicoverpa armigera was obtained as fresh eggs from AgBiTech Pty. Ltd, Glenvale QLD, Australia, or CSIRO Agriculture and Food, Cotton Research Institute, Myall Vale NSW, Australia.
Eggs (50-75) were transferred with a fine camel hair brush onto 90 mm Whatman No. 1 filter paper partially moistened with distilled water and thin slices from the artificial medium supplied by AgBiTech were placed on the filter paper as a source of food for the hatching caterpillars. The eggs were left to hatch under laboratory conditions of 25±3° C. and 65±10% RH. Hatching occurred within 24 h and bioassays were carried out on neonate larvae with an average weight of […].
For Helicoverpa, neonate larvae 4-12 h after hatching were transferred individually to a cotton plant leaf disc (35 mm diameter) mounted with its lower side uppermost on 1% agar in an Easy Grip Tissue Culture Dish dimensions 35×10 mm (Corning Incorporated, Corning NY, USA). […] Thus, each replicate comprised 4 neonates.
Following spraying, the small dishes were covered with a perforated plastic sheet and then placed in plastic insect cages previously described for aphid bioassays. The number of dishes sprayed per sample was 4-10. Dishes were retained under laboratory conditions (24±2° C., 50±15% RH) for post-treatment observations. Mortality counts were conducted at 24 and 48 HAT. Absence of the caterpillar movement when prodded with a fine brush was taken as the criterion of death.
(§1) For each batch of investigations, control treatments were conducted, with methodology identical to other treatments. The control treatment solutions comprised 3 mL aliquots of 200 ppm Triton X-100 in distilled water and acetone or hexane at the same concentration as the test solutions. Investigations were discarded if control mortality exceeded 15%. Treatment mortality was calculated and is presented as corrected mortality, to account for any control mortality (Abbott WS., A method of computing the effectiveness of an insecticide. Journal of Economic Entomology, 18, 265-267, 1925).

[2] = test system: two-spotted spider mite (TSM), Tetranychus urticae Koch; assay: Potter spray tower bioassay on leaf discs, two-spotted spider mite; details: 1.0% w/v; for mortality at 1 % strength: Tetranychus urticae, foliar
Source text: Tetranychus urticae Koch, (Acari: Tetranychidae), commonly known as two-spotted spider mite is a cosmopolitan, phytophagous species, and an important agricultural pest in many temperate and sub-tropical countries. It is highly polyphagous, and feeds primarily on plant foliage. Tetranychus urticae Koch UWS 1 (organophosphate-susceptible) strain, originally obtained from Dr Grant Herron, NSW
Department of Primary Industries, Menangle NSW, Australia, but had been maintained at WSU Hawkesbury campus for approximately 18 years. They were reared on potted French beans, Phaseolus vulgaris var Redland Pioneer (in a constant temperature room maintained at 25±2° C., 65±5% RH and 14 h D: L photoperiod. The culture was reared on potted dwarf French bean (Phaseolus vulgaris L. var. Redland Pioneer) plants grown in a composted pinebark-based potting medium in a large (7.0 m (1)×6.0 m (w)×4.0 m (h)), pesticide-free, constant temperature room (28-30° C., 50% RH, 18:6, D:L). Only young gravid female two-spotted mites were selected for bioassay.
For the two-spotted spider mite, screening of each sample was conducted on 20-40 adult female mites, which were evenly distributed on 1-3 French bean leaf discs (25 mm diam.) contained in 90 mm diameter Petri dishes. The leaf discs were placed with their underside uppermost on moist absorbent cotton wool. Water was added to the dishes daily to prevent desiccation of the leaf discs and preventing the mites from escaping the leaf disc.
A 3.0 mL aliquot was applied to each Petri dish with a Potter precision spray tower as described by Herron et al., Potter spray tower bioassay of selected citrus pests to petroleum spray oil, Journal of the Australian Entomological Society 34, 253-263, 1995.
The average weight of the solution sprayed on each dish was calculated to be 5.385 mg/cm^2 or 0.05385 mg/cm^2 active ingredient (a.i.). Dishes were retained under laboratory conditions (24±2° C., 50±15% RH) for post-treatment observations. Mortality was recorded 24 h and 48 h after treatment (HAT). Death was recognised by the absence of movement when the test organisms were mechanically stimulated by prodding with a brush.
as §1

[3] = test system: cotton aphid, Aphis gossypii; assay: Potter spray tower bioassay on leaf discs, cotton aphid; details: 1.0% w/v
Description: Aphis gossypii (susceptible strain) (Hemiptera: Aphididae), was established as a culture from material supplied by Dr Grant Herron, NSW Department of Primary Industries, Menangle NSW, Australia. Aphids were reared on potted Gossypium hirsutum L. (Malvaceae) grown from non-insecticide-treated conventional cotton seed, supplied by Dr Robert Mensah, NSW Department of Primary Industries, Narrabri NSW, Australia. The culture was maintained in a temperature-controlled greenhouse chamber set at 27±3° C. and 55±10% RH (relative humidity) and natural light. Only young adult females were selected for bioassay.
For the cotton aphid, parthenogenetic adult female aphids were collected from the cultures on cotton plants. Fifteen adults were transferred using a fine camel hair brush onto the lower side of a respective leaf disc 50 mm diameter mounted on 1.0% w/v agar in a plastic insect cage measuring 50 mm diameter×15 mm height plastic insect breeding 50 mm diameter×15 height (SPL Life Sciences, Korea).
Aliquots (3 mL) of the 1% w/v extracts were applied with a Potter Spray Tower for each treatment, as described above, and the spray was allowed to partially dry before the cage was covered with its lid and the sides of the cage sealed with Parafilm M®.
Dishes were retained under laboratory conditions (24±2° C., 50±15% RH) for post-treatment observations. […]

CCc1c(OC)oc(CCCCCCCCCC(C)=O)c(C)c1=O [Fraction 42, 10′-oxopodopyrone]
mortality at 1 % strength ([1]; read-out: Corrected percentage mortality Helicoverpa 24 HAT): 0%
mortality at 1 % strength ([1]; read-out: Corrected percentage mortality Helicoverpa 48 HAT): 0%
mortality at 1 % strength ([2]; read-out: Corrected percentage mortality TSM 24 HAT): 100%
mortality at 1 % strength ([2]; read-out: Corrected percentage mortality TSM 48 HAT): 100%

10′-oxo-8-methyl podopyrone [Fraction 44]
Corrected percentage mortality Cotton aphid 24 HAT [3]: 100.0%
Corrected percentage mortality Helicoverpa 24 HAT [1]: 100.0%
Corrected percentage mortality Helicoverpa 48 HAT [1]: 100.0%
Corrected percentage mortality TSM 24 HAT [2]: 100.0%
Corrected percentage mortality TSM 48 HAT [2]: 100.0%
